Two compounds from patent US9556117B2, “Indole carboxamide derivatives as P2X7 receptor antagonists” (ACTELION PHARMACEUTICALS LTD, priority 2012, dated 2017) can be followed below.

Each structure is given as a SMILES string.

The target in this assay is human recombinant P2X7 receptor (Homo sapiens (Human), UniProt Q99572). Description: YO-PRO1 assay, P2X7 receptor antagonistic activity.
Sequence of human recombinant P2X7 receptor (Q99572 whole entry): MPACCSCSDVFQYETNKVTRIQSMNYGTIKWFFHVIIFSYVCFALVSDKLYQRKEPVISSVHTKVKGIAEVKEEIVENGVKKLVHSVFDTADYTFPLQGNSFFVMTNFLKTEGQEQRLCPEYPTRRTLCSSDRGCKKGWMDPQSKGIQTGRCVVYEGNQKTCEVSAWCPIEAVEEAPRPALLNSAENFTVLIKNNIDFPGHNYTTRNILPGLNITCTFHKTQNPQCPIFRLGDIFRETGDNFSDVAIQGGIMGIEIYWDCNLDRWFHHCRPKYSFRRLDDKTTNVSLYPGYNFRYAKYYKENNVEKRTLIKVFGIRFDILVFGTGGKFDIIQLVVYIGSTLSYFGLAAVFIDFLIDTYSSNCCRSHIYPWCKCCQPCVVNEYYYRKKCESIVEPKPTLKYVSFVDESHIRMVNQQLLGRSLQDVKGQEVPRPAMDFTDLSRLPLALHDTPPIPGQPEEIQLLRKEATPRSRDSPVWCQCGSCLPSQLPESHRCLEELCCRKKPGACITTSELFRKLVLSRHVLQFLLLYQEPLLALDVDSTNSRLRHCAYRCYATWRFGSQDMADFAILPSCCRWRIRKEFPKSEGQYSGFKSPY

`O=C(NC(CO)C1CCCCCC1)c1ccc2[nH]ccc2c1Cl` (racemic) [Example 10, rac-4-Chloro-1H-indole-5-carboxylic acid (1-cycloheptyl-2-hydroxy-ethyl)-amide]: the IC50 is 57 nM.
With `CC(O)c1cc(C(=O)NCC2(O)CCC(F)(F)CC2)c(Cl)c2cc[nH]c12` (racemic) [Example 67, rac-4-Chloro-7-(1-hydroxy-ethyl)-1H-indole-5-carboxylic acid (4,4-difluoro-1-hydroxy-cyclohexylmethyl)-amide], the IC50 turned out to be 4.7 nM.

As a reminder, the IC50 is the concentration that gives 50% inhibition.
